The record followed here is US11478474B2, “2-(3′-(hydroxymethyl)-1-methyl-5-((5-(2-methyl-4-(oxetan-3-yl)piperazin-1-yl)pyridin-2-yl)amino)-6-oxo-1,6-dihydro-[3,4′-bipyridin]-2′-yl)-7,7-dimethyl-7,8-dihydro-2H-cyclopenta[4,5]pyrrolo[1,2-a]pyrazin-1(6H)-one as a BTK inhibitor” (HUTCHISON MEDIPHARMA LIMITED, priority 2020, dated 2022).

Experiment [1] has as its system B cell activation in rat whole blood. The experiment is described as follows: Determination of B cell activity in whole blood of rats (anti-rat IgD induced B cell activation, flow cytometry). It counts as cell-based. As to conditions: anti-rat immunoglobulin D 10 μg/mL, 18 hours, inhibition of B cell activation. On the procedure: Example 4 Determination of B Cell Activity in Whole Blood of Rats
1. Reagents and Materials
Peripheral whole blood of female Wistar rats;
In the determination of the compound activity, the collected peripheral whole blood of rat was added to a 96 well plate at 80 μL/well and cultured in a 5% CO2, 37° C. cell incubator. After half an hour, the test compound was diluted with PBS in a 3-fold gradient to the corresponding concentrations, and then the diluted test compound with different concentrations was added to the culture system of rat whole blood at 10 μL/well (the final concentration of the test compound was 1.0, 0.33, 0.11, 0.037, 0.012, 0.0041, 0.0014, and 0.0005 μM, the final concentration of DMSO was 0.3%, double replicate wells), or the control solution (0.3% DMSO, 6 replicate wells) was added to the corresponding well at 10 μL/well, which were incubated in the cell incubator for one hour. Then 10 μL/well of anti-rat immunoglobulin D diluted in PBS (the final concentration was 10 μg/mL) was add to the treating wells of the test compound and control wells for anti-rat immunoglobulin D, or 10 μL/well of PBS was added to the negative control wells, which were mixed well to continue the culture in a 5% CO2, 37° C. cell incubator, and incubated for 18 hours.
On the second day, the 96-well plates were taken out and the flow cytometry antibody mixture (the final concentration of anti-rat B220PE antibody was 1 μg/mL and the final concentration of anti-rat CD86 FITC antibody was 1 μg/mL) diluted with PBS was added to each well of plate, which were incubated for 30 minutes in the dark, and then 50 μL of blood from each well was pipetted to the freshly prepared 500 μL of lysis buffer to lyse red blood cells. The plates were shaken for 20 minutes, centrifuged to remove the supernatant, then washed, fixed, and detected on a flow cytometer.
The B cell activation in the sample was determined by flow dyeing method.
The average value of the proportion of activated B cells in the wells with anti-rat immunoglobulin D but without the test compound was used as the control treating well for anti-rat immunoglobulin D, and the average value of the proportion of activated B cells in the wells without immunoglobulin D stimulation and without the test compound was used as the negative control treating well. According to the B cell activation ratio in each well, the inhibition ratio (%) of each concentration was calculated, and then the IC50 value was obtained by using the 205 model in XL-Fit 5.3 software (ID Business Solutions Limited).
The inhibition ratio is calculated as follows: inhibition ratio (%)=100%−{(treating well for the test compound−negative control treating well)/(control treating well for anti-rat immunoglobulin D−negative control treating well)}×100%, wherein,
Treating well for the test compound: represents the B cell activation ratio in rat whole blood treated with anti-rat immunoglobulin D and the test compound.
Control treating well for anti-rat immunoglobulin D: represents the B cell activation ratio in rat whole blood treated with anti-rat immunoglobulin D but without the test compound.
Negative control treating well: represents the B cell activation ratio in rat whole blood without the test compound and without immunoglobulin stimulation.
Through the above-mentioned test, the compound of the present invention has a potency to inhibit B cell activation in rat whole blood.

Experiment [2] concerns the target BTK recombinant protein (Homo sapiens (Human), UniProt Q06187). The experiment is described as follows: Determination of biochemical BTK (Z'-LYTE kinase assay). The procedure, abridged:
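Human BTK recombinant kinase (3.32 nM final) was preincubated with compound for 30 min at 4 °C. Reaction ran 1 h at room temperature with Tyr01 FRET peptide (2 μM) and ATP (32 μM); development protease then added. Coumarin 445 nm/fluorescein 520 nm emission ratio (400 nm excitation) gave inhibition across 8 concentrations, 3000–1.37 nM.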

The structures appear in SMILES notation. A value given as a limit tells only on which side of the number the result lay.

Chain of BTK recombinant protein (Q06187 whole entry): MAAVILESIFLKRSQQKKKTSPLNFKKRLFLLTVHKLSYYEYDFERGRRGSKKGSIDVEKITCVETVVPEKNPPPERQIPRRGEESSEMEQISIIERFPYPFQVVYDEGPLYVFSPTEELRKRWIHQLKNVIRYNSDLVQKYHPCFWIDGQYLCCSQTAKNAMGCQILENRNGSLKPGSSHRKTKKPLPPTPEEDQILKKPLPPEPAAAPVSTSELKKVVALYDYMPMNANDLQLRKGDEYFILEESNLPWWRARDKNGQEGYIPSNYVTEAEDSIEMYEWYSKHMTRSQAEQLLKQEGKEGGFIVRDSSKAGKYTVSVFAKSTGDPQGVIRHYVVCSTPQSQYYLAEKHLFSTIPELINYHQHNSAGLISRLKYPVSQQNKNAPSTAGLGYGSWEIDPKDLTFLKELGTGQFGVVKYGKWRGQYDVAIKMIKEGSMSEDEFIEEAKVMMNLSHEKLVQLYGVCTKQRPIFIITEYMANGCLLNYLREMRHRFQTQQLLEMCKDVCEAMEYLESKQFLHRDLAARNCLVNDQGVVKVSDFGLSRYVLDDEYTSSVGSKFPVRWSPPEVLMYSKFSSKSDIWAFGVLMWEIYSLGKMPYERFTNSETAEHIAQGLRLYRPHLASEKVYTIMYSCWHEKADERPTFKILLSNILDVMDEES

Broadly, the IC50 is the concentration needed to halve the response being measured. As for `CC1CCc2cc3c(=O)n(-c4nccc(-c5cc(Nc6ccc(N7CCN(C8COC8)C[C@@H]7C)cn6)c(=O)n(C)c5)c4CO)ccn3c2C1` (mixture of isomers) [Compound 78], the IC50 in experiment [1] was found to be 41 nM; in experiment [2] it was 8 nM. The corresponding values for `C[C@@H]1CN(c2ccc(Nc3cc(-c4ccnc(-n5ccn6c7c(cc6c5=O)CCC7)c4CO)cn(C)c3=O)nc2)[C@@H](C)CN1C1COC1` [Compound 2, 2-(5-((5-((2S,5R)-2,5-dimethyl-4-(oxetan-3-yl)piperazin-1-yl)pyridin-2-yl)amino)-3′-(hydroxymethyl)-1-methyl-6-oxo-1,6-dihydro-[3,4′-bispyridin]-2′-yl)-7,8-dihydro-2H-cyclopenta[4,5]pyrrolo[1,2-a]pyrazin-1(6H)-one] are 54 nM and 9 nM.

In the case of `COCCN1CCN(c2ccc(Nc3cc(-c4ccnc(-n5ccn6c7c(cc6c5=O)CC(C)(C)C7)c4CO)cn(C)c3=O)nc2)[C@@H](C)C1` [Compound 8], the 50% inhibitory concentration (IC50) amounted to 17 nM in experiment [1] and 12 nM in experiment [2]. `Cn1cc(-c2ccnc(-n3ccn4c5c(cc4c3=O)CC(C)(C)C5)c2CO)cc(Nc2ccc(N3CCN(C4COC4)CC3)cn2)c1=O` [Compound 9]: in experiment [2], the 50% inhibitory concentration (IC50) is less than 1 nM. `C[C@H]1CN(C2COC2)CCN1c1ccc(Nc2cc(-c3ccnc(-n4ccn5c6c(cc5c4=O)CC(C)(C)C6)c3CO)cn(C)c2=O)nc1` [Compound 19] yielded a half-maximal inhibitory concentration (IC50) in experiment [1] of 3 nM. For the compound `C[C@H]1CN(C2COC2)CCN1c1ccc(Nc2cc(-c3ccnc(-n4ccn5c6c(cc5c4=O)CC(C)(C)C6)c3CO)cn3ncnc23)nc1` [Compound 21], the IC50 is 24 nM in experiment [1] and 8 nM in experiment [2]. Take `C[C@H]1CN(C2COC2)CCN1c1ccc(Nc2cc(-c3ccnc(-n4ccn5c6c(cc5c4=O)CC(C)(C)C6)c3CO)nn(C)c2=O)nc1` [Compound 22]: half-maximal inhibition in experiment [1] (IC50) was put at 34 nM. On to `C[C@H]1CN(C2COC2)CCN1c1ccc(Nc2cc(-c3ccnc(-n4ccn5c6c(cc5c4=O)CC(C)(C)C6)c3CO)cn3c(F)cnc23)nc1` [Compound 23], for which the concentration for half-maximal inhibition (IC50) in experiment [1] amounted to 277 nM; in experiment [2] it was 44 nM.

Consider `C[C@H]1CN(C)CCN1c1ccc(Nc2cc(-c3ccnc(-n4ccn5c6c(cc5c4=O)CC(C)(C)C6)c3CO)cn(C)c2=O)nc1` [Compound 26], for which the IC50 in experiment [1] was found to be 19 nM; in experiment [2], 7 nM. The corresponding values for `C[C@@H]1CN(c2ccc(Nc3cc(-c4ccnc(-n5ccn6c7c(cc6c5=O)CC(C)(C)C7)c4CO)cn(C)c3=O)nc2)[C@@H](C)CN1C1COC1` [Compound 27] are 5 nM and 7 nM. The corresponding values for `Cn1cc(Nc2cc(-c3ccnc(-n4ccn5c6c(cc5c4=O)CC(C)(C)C6)c3CO)cn(C)c2=O)nn1` [Compound 28] are 78 nM and 3 nM. The corresponding values for `Cn1cc(-c2ccnc(-n3ccn4c5c(cc4c3=O)CC(C)(C)C5)c2CO)cc(Nc2cn(CCF)nn2)c1=O` [Compound 31] are 93 nM and 9 nM.

For the compound `C[C@H]1CN(C2COC2)CCN1c1cnc(Nc2cc(-c3ccnc(-n4ccn5c6c(cc5c4=O)CC(C)(C)C6)c3CO)cn(C)c2=O)cn1` [Compound 43], the IC50 in experiment [1] was 52 nM; in experiment [2] it was 9 nM. Turning to `C[C@H]1CN(C2COC2)CCN1c1cnc(Nc2cc(-c3ccnc(-n4ccn5c6c(cc5c4=O)CC(C)(C)C6)c3CO)cn(C)c2=O)nc1` [Compound 44], in experiment [2], the 50% inhibitory concentration (IC50) amounted to 22 nM.

As for `CN1CCN(C(=O)c2ccc(Nc3cc(-c4ccnc(-n5ccn6c7c(cc6c5=O)CC(C)(C)C7)c4CO)cn(C)c3=O)nc2)CC1` [Compound 48], the concentration for half-maximal inhibition (IC50) in experiment [1] turned out to be 26 nM; in experiment [2] it was 4 nM. The corresponding values for `C[C@H]1CN(C2COC2)CCN1c1ccc(Nc2cc(-c3ccnc(-n4ccn5c6c(cc5c4=O)CC(C)(C)C6)c3CO)n[nH]c2=O)nc1` [Compound 49] are 10 nM and 6 nM. As to `COCCN(C)c1ccc(Nc2cc(-c3ccnc(-n4ccn5c6c(cc5c4=O)CC(C)(C)C6)c3CO)cn(C)c2=O)nc1` [Compound 50], the half-inhibitory concentration (IC50) in experiment [1] was 84 nM; in experiment [2] it was 24 nM. `C[C@H]1CN(C2COC2)CCN1c1ccc(Nc2cc(-c3ccnc(-n4ccn5c6c(cc5c4=O)CCC(F)(F)C6)c3CO)cn(C)c2=O)nc1` [Compound 56]: the half-maximal inhibitory concentration (IC50) in experiment [2] was 20 nM. Take `C[C@H]1CN(C2COC2)CCN1c1ccc(Nc2cc(-c3ccnc(-n4ccn5c(c(F)c6ccccc65)c4=O)c3CO)cn(C)c2=O)nc1` [Compound 57]: the figures for the concentration for half-maximal inhibition (IC50) in experiment [1] and in experiment [2] were 21 nM and 6 nM, respectively. The corresponding values for `C[C@H]1CN(C2COC2)CCN1c1ccc(Nc2cc(-c3ccnc(-n4ccn5c6c(cc5c4=O)CC(F)(F)CC6)c3CO)cn(C)c2=O)nc1` [Compound 58] are 6 nM and 8 nM.

Turning to `C[C@@H]1CN(c2ccc(Nc3cc(-c4ccnc(-n5ccn6c(c(F)c7ccccc76)c5=O)c4CO)cn(C)c3=O)nc2)[C@@H](C)CN1C1COC1` [Compound 59], the half-inhibitory concentration (IC50) in experiment [1] stood at 19 nM; in experiment [2], 5 nM. On to `C[C@H]1CN(C2COC2)CCN1c1ccc(Nc2cc(-c3ccnc(-n4ccn5c(c(F)c6cc(F)ccc65)c4=O)c3CO)cn(C)c2=O)nc1` [Compound 60], for which the 50% inhibitory concentration (IC50) worked out at 34 nM in experiment [1] and 4 nM in experiment [2]. Turning to `C[C@H]1CN(C2COC2)CCN1c1ccc(Nc2cc(-c3ccnc(-n4cnn5c6c(cc5c4=O)CC(C)(C)C6)c3CO)cn(C)c2=O)nc1` [Compound 63], the concentration for half-maximal inhibition (IC50) is 44 nM in experiment [1] and 8 nM in experiment [2].

For the compound `C[C@H]1CN(C2COC2)CCN1c1ccc(Nc2cc(-c3ccnc(-n4ccn5c6c(cc5c4=O)CCC6)c3CO)cn(C)c2=O)nc1` [Compound 64], the values for the IC50 in experiment [1] and in experiment [2] were 52 nM and 20 nM, respectively. The corresponding values for `CCn1cc(Nc2cc(-c3ccnc(-n4ccn5c6c(cc5c4=O)CC(C)(C)C6)c3CO)cn3ncnc23)nn1` [Compound 71] are 92 nM and 6 nM. `C[C@H]1CN(C2COC2)CCN1c1ccc(Nc2cc(-c3ccnc(-n4ccn5c(cc6ccccc65)c4=O)c3CO)cn(C)c2=O)nc1` [Compound 74]: the IC50 in experiment [2] amounted to 17 nM.

For `C[C@H]1CN(C2COC2)CCN1c1ccc(Nc2cc(-c3ccnc(-n4ccn5c(cc6cc(F)ccc65)c4=O)c3CO)cn(C)c2=O)nc1` [Compound 75], the IC50 was 85 nM in experiment [1] and 11 nM in experiment [2]. Turning to `C[C@H]1CN(C2COC2)CCN1c1ccc(Nc2cc(-c3ccnc(-n4ncn5c6c(cc5c4=O)CC(C)(C)C6)c3CO)cn(C)c2=O)nc1` [Compound 79], the IC50 in experiment [1] is 6 nM; in experiment [2], less than 1 nM.
